According to patent US10576062B2, “Carbamoyloxymethyl triazole cyclohexyl acids as LPA antagonists” (Bristol-Myers Squibb Company, priority 2016, dated 2020):

biological target: T1, human LPA1 (Homo sapiens, UniProt Q92633); assay: LPA1 functional antagonist assay (LPA-induced calcium flux); assay type: cell-based; details: CHO cells overexpressing human LPA1; inhibition of calcium flux induced by 10 nM LPA; read-out: hLPA1 IC50
T1 construct: expressed in transfected cells; host or cells: Chinese hamster ovary (CHO) cells
T1 sequence (Q92633 whole entry): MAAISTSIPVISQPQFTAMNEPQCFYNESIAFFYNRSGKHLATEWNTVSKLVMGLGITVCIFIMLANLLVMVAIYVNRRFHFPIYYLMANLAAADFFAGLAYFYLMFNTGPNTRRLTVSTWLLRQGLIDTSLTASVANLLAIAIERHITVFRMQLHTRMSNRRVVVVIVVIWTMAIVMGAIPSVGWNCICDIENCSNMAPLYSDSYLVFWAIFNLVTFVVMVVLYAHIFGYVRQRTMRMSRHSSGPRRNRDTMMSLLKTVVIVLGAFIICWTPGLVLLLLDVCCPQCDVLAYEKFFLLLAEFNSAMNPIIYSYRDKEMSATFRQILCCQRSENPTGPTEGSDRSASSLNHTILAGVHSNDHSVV
Method: The effectiveness of compounds of the present invention as LPA1 inhibitors can be determined in an LPA1 functional antagonist assay as follows: Chinese hamster ovary cells overexpressing human LPA1 were plated overnight (15,000 cells/well) in poly-D-lysine coated 384-well microplates (Greiner bio-one, Cat #781946) in DMEM/F12 medium (Gibco, Cat #11039). Following overnight culture, cells were loaded with calcium indicator dye (AAT Bioquest Inc, Cat #34601) for 30 minutes at 37° C. The cells were then equilibrated to room temperature for 30 minutes before the assay. Test compounds solubilized in DMSO were transferred to 384 well non-binding surface plates (Corning, Cat #3575) using the Labcyte Echo acoustic dispense and diluted with assay buffer [1×HBSS with calcium/magnesium (Gibco Cat #14025-092), 20 mM HEPES (Gibco Cat #15630-080) and 0.1% fatty acid free BSA (Sigma Cat #A9205)] to a final concentration of 0.5% DMSO. Diluted compounds were added to the cells by FDSS6000 (Hamamatsu) at final concentrations ranging from 0.08 nM to 5 μM. and were then incubated for 20 min at room temperature at which time LPA (Avanti Polar Lipids Cat #857130C) was added at final concentrations of 10 nM to stimulate the cells. […] IC50 values were determined by fitting data to a 4-parameter logistic equation (GraphPad Prism, San Diego Calif.).

Row | SMILES | IC50 [nM]
1 | CN(C(=O)OCc1c(-c2ccc(O[C@H]3CCC[C@H](C(=O)O)C3)cn2)nnn1C)C1CCCC1 [Example 2, (1S,3S)-3-((6-(5-(((cyclopentyl(methyl)carbamoyl)oxy)methyl)-1-methyl-1H-1,2,3-triazol-4-yl)pyridin-3-yl)oxy)cyclohexane-1-carboxylic Acid] | 19
2 | CN(C(=O)OCc1c(-c2ccc(O[C@H]3CCC[C@H](C(=O)NS(C)(=O)=O)C3)cc2)nnn1C)C1CCCC1 [Example 7, (1-Methyl-4-(4-(((1S,3S)-3-((methylsulfonyl)carbamoyl)cyclohexyl)oxy)phenyl)-1H-1,2,3-triazol-5-yl)methyl cyclopentyl(methyl)carbamate] | 3750
3 | Cc1nc(-c2nnn(C)c2COC(=O)N(C)CC2CCC2)ccc1O[C@H]1CCC[C@H](C(N)=O)C1 [Example 14, (4-(5-(((1S,3S)-3-carbamoylcyclohexyl)oxy)-6-methylpyridin-2-yl)-1-methyl-1H-1,2,3-triazol-5-yl)methyl (cyclobutylmethyl)(methyl)carbamate] | 824
4 | Cc1nc(-c2nnn(C)c2COC(=O)N(C)CC2CCC2)ccc1O[C@H]1CCC[C@H](C(=O)NS(C)(=O)=O)C1 [Example 17, (1-methyl-4-(6-methyl-5-(((1S,3S)-3-((methylsulfonyl)carbamoyl)cyclohexyl)oxy)pyridin-2-yl)-1H-1,2,3-triazol-5-yl)methyl (cyclobutylmethyl)(methyl)carbamate] | 352

Results, then the compound that gave them:

Row | IC50 [nM] | SMILES
5 | 19 | CN(CCC1CC1)C(=O)OCc1c(-c2ccc(O[C@H]3CCC[C@H](C(=O)O)C3)cn2)nnn1C [Example 3, (1S,3S)-3-((6-(5-((((2-cyclopropylethyl)(methyl)carbamoyl)oxy)methyl)-1-methyl-1H-1,2,3-triazol-4-yl)pyridin-3-yl)oxy)cyclohexane-1-carboxylic Acid]
6 | 23 | CCCC(C)(C)N(C)C(=O)OCc1c(-c2ccc(O[C@H]3CCC[C@H](C(=O)O)C3)cc2)nnn1C [Example 10, (1S,3S)-3-(4-(1-Methyl-5-(((methyl(2-methylpentan-2-yl)carbamoyl)oxy)methyl)-1H-1,2,3-triazol-4-yl)phenoxy)cyclohexanecarboxylic Acid]
7 | 3750 | Cc1nc(-c2nnn(C)c2COC(=O)N(C)CC2CCC2)ccc1O[C@H]1CCC[C@H](C#N)C1 [Example 15, (4-(5-(((1S,3S)-3-cyanocyclohexyl)oxy)-6-methylpyridin-2-yl)-1-methyl-1H-1,2,3-triazol-5-yl)methyl (cyclobutylmethyl)(methyl)carbamate]
8 | 22 | Cc1nc(-c2nnn(C)c2COC(=O)N(C)CC2CCC2)ccc1O[C@H]1CCC[C@H](c2nnn[nH]2)C1 [Example 16, (4-(5-(((1S,3 S)-3-(1H-tetrazol-5-yl)cyclohexyl)oxy)-6-methylpyridin-2-yl)-1-methyl-1H-1,2,3-triazol-5-yl)methyl (cyclobutylmethyl)(methyl)carbamate]

same assay, conditions: read-out: hLPA1 IC50

Row | SMILES | IC50 [nM]
9 | Cc1nc(-c2nnn(C)c2COC(=O)N(C)[C@H](C)c2ccccc2)ccc1O[C@H]1CCC[C@H](C(=O)O)C1 [Example 19, (1S,3S)-3-((2-methyl-6-(1-methyl-5-(((methyl((R)-1-phenylethyl)carbamoyl)oxy)methyl)-1H-1,2,3-triazol-4-yl)pyridin-3-yl)oxy)cyclohexane-1-carboxylic acid] | 17
10 | C[C@H](c1ccccc1)N(C)C(=O)OCc1c(-c2ccc(O[C@H]3CCC[C@H](C(=O)O)C3)cn2)nnn1C [Example 21, (1S,3S)-3-((6-(1-methyl-5-(((methyl((R)-1-phenylethyl)carbamoyl)oxy)methyl)-1H-1,2,3-triazol-4-yl)pyridin-3-yl)oxy)cyclohexane-1-carboxylic acid] | 21
11 | CN(CC1CCC1)C(=O)OCc1c(-c2ccc(O[C@H]3CCC[C@H](C(=O)O)C3)cn2)nnn1C [Example 23, (1S,3S)-3-((6-(5-((((cyclobutylmethyl)(methyl)carbamoyl)oxy)methyl)-1-methyl-1H-1,2,3-triazol-4-yl)pyridin-3-yl)oxy)cyclohexane-1-carboxylic acid] | 12
12 | C[C@H](C1CC1)N(C)C(=O)OCc1c(-c2ccc(O[C@H]3CCC[C@H](C(=O)O)C3)cn2)nnn1C [Example 25, (1S,3S)-3-((6-(5-(((((R)-1-cyclopropylethyl)(methyl)carbamoyl)oxy)methyl)-1-methyl-1H-1,2,3-triazol-4-yl)pyridin-3-yl)oxy)cyclohexane-1-carboxylic acid] | 20
13 | CN(CC1CCC1)C(=O)OCc1c(-c2ccc(O[C@H]3CCC[C@H](C(=O)O)C3)c(F)c2)nnn1C [Example 27, (1S,3S)-3-(4-(5-((((cyclobutylmethyl)(methyl)carbamoyl)oxy)methyl)-1-methyl-1H-1,2,3-triazol-4-yl)-2-fluorophenoxy)cyclohexane-1-carboxylic acid] | 14
14 | Cc1nc(-c2nnn(C)c2COC(=O)N(C)Cc2ccccc2)ccc1O[C@H]1CCC[C@H](C(=O)O)C1 [Example 30, (1S,3S)-3-((6-(5-(((benzyl(methyl)carbamoyl)oxy)methyl)-1-methyl-1H-1,2,3-triazol-4-yl)-2-methylpyridin-3-yl)oxy)cyclohexane-1-carboxylic acid] | 16
15 | Cc1nc(-c2nnn(C)c2COC(=O)N(C)CCC(C)C)ccc1O[C@H]1CCC[C@H](C(=O)O)C1 [Example 34, (1S,3S)-3-((6-(5-(((isopentyl(methyl)carbamoyl)oxy)methyl)-1-methyl-1H-1,2,3-triazol-4-yl)-2-methylpyridin-3-yl)oxy)cyclohexane-1-carboxylic acid] | 16
16 | Cc1cc(-c2nnn(C)c2COC(=O)N(C)[C@H](C)C2CC2)ccc1O[C@H]1CCC[C@H](C(=O)O)C1 [Example 36, (1S,3S)-3-(4-(5-(((((R)-1-cyclopropylethyl)(methyl)carbamoyl)oxy)methyl)-1-methyl-1H-1,2,3-triazol-4-yl)-2-methylphenoxy)cyclohexane-1-carboxylic acid] | 6

Other lines, results leading:

Row | IC50 [nM] | SMILES
17 | 18 | CN(Cc1ccccc1)C(=O)OCc1c(-c2ccc(O[C@H]3CCC[C@H](C(=O)O)C3)cn2)nnn1C [Example 22, (1S,3S)-3-((6-(5-(((benzyl(methyl)carbamoyl)oxy)methyl)-1-methyl-1H-1,2,3-triazol-4-yl)pyridin-3-yl)oxy)cyclohexane-1-carboxylic acid]
18 | 34 | CN(Cc1ccccc1)C(=O)OCc1c(-c2ccc(O[C@H]3CCC[C@H](C(=O)O)C3)c(F)c2)nnn1C [Example 26, (1S,3S)-3-(4-(5-(((benzyl(methyl)carbamoyl)oxy)methyl)-1-methyl-1H-1,2,3-triazol-4-yl)-2-fluorophenoxy)cyclohexane-1-carboxylic acid]
19 | 41 | Cc1nc(-c2nnn(C)c2COC(=O)N(C)[C@H](C)C2CC2)ccc1O[C@H]1CCC[C@H](C(=O)O)C1 [Example 29, (1S,3S)-3-((6-(5-(((((R)-1-cyclopropylethyl)(methyl)carbamoyl)oxy)methyl)-1-methyl-1H-1,2,3-triazol-4-yl)-2-methylpyridin-3-yl)oxy)cyclohexane-1-carboxylic acid]
20 | 284 | Cc1nc(-c2nnn(C)c2COC(=O)N(C)Cc2ccc(Cl)cc2)ccc1O[C@H]1CCC[C@H](C(=O)O)C1 [Example 35, (1S,3S)-3-((6-(5-((((4-chlorobenzyl)(methyl)carbamoyl)oxy)methyl)-1-methyl-1H-1,2,3-triazol-4-yl)-2-methylpyridin-3-yl)oxy)cyclohexane-1-carboxylic acid]
